Experimental data as given in patent US6433005B1, “Benzofuran and benzothiophene derivatives as anti-inflammatory agents” (Syntex (U.S.A.) LLC, priority 2000, dated 2002).

Key:
COX I = target: T1, COX I (Homo sapiens, UniProt P23219); assay: Inhibition of COX I in vitro, radiometric assay with partially purified enzyme; format: biochemical; settings: 10 min preincubation, 20 micromolar [14C] arachidonic acid
T1 construct: made in house
Protocol: (§1) The COX I and COX II inhibitory activity of compounds of this invention in vitro was determined using partially purified COX I and COX II enzymes, prepared as described in J. Bamett et al., Biochim. Biophys. Acta, 1209,130-139 (1994).
(§2) COX I and COX II samples were diluted with Tris-HCl buffer (50 mM Tris-HCl, pH 7.9) containing 2 mM EDTA and 10% glycerol and reconstituted by incubating first with 2 mM phenol for 5 minutes and then with 1 micromolar hematin for an additional 5 minutes. 125 μL of the reconstituted COX I or COX II enzyme were preincubated for 10 minutes at room temperature in a shaking water bath with the compounds of the invention dissolved in 2-15 μL of DMSO or the carrier vehicles (control samples). The enzyme reaction was initiated by adding 25 μL of 1-[14 C] arachidonic acid (80,000-100,000 cpm/tube; 20 micromolar final concentration) and the reaction was allowed to continue for an additional 45 seconds. The reaction was terminated by adding 100 μL is of 2N HCl and 750 μL water. An aliquot (950 μL) of the reaction mixture was loaded onto a 1 mL C18 Sep-Pak column (J. T. Baker, Phillipsburg, N.J.) which had been previously washed with 2-3 mL methanol and equilibrated with 5-6 mL distilled water. Oxygenated products were quantitatively eluted with 3 mL of acetonitrile/water/acetic acid (50:50:0.1, v/v) and the radioactivity in the eluate determined in a scintillation counter. Compounds of this invention were active in this assay for COX II.
(§3) The COX inhibitory activities (expressed as IC50, the concentration causing 50% inhibition of the COX enzyme being assayed) of some exemplary compounds of the invention were: […]

COX II = target: T2, COX II (Homo sapiens, UniProt P35354); assay: Inhibition of COX II in vitro, radiometric assay with partially purified enzyme; format: biochemical; settings: 10 min preincubation, 20 micromolar [14C] arachidonic acid
T2 construct: made in house
T2 sequence (P35354 18-604): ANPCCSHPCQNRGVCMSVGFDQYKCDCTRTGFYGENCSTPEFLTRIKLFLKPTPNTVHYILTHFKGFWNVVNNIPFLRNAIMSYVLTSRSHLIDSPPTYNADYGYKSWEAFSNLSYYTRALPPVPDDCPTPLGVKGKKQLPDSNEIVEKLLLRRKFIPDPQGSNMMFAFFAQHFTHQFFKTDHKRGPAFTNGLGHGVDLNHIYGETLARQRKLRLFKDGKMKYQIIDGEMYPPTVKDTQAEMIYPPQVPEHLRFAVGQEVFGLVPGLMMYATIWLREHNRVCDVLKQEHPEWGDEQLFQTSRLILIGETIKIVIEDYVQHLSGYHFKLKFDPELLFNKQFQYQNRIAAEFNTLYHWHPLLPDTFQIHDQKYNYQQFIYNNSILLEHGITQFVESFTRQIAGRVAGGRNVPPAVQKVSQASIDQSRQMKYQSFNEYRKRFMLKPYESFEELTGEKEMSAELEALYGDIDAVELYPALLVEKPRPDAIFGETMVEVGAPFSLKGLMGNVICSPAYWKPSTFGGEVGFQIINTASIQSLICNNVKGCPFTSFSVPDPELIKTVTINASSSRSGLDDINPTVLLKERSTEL
Protocol: as §1, §2, §3

T1 sequence (P23219 24-599): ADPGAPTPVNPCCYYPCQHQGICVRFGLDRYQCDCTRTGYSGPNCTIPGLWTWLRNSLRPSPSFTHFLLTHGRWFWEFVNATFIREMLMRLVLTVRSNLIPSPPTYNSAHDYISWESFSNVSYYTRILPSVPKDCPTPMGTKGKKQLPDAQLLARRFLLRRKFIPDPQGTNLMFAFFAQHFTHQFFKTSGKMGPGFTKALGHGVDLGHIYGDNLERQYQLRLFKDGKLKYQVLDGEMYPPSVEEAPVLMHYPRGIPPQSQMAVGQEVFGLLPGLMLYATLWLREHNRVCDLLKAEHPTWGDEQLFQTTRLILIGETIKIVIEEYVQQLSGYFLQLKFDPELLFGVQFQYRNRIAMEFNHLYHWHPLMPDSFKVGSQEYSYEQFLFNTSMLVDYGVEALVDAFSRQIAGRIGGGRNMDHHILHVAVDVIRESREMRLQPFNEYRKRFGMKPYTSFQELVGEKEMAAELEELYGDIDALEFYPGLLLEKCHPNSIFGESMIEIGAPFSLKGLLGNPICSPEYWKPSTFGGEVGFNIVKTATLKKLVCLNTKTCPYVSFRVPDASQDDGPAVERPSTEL

Q: How did the IC50 (COX I) turn out when CCOc1ccc(Oc2c(C#N)sc3cc(S(C)(=O)=O)ccc23)cc1 [Cpd 31, 3-(4-ethoxy-phenoxy)-6-methanesulfonyl-benzo[b]thiophene-2-carbonitrile] was run?
A: > 120 µM

Q: And the IC50 (COX II)?
A: < 1.5 µM

Q: With CS(=O)(=O)c1ccc2c(Sc3ccccc3Cl)c(C#N)sc2c1 [Cpd 17, 3-(2-chloro-phenylsulfanyl)-6-methanesulfonyl-benzo[b]thiophene-2-carbonitrile] as the molecule, how does the IC50 (COX I) read?
A: > 120 µM

Q: And the IC50 (COX II)?
A: < 1 µM

Q: How did the IC50 (COX I) turn out when CS(=O)(=O)c1ccc2c(Sc3ccc(Cl)cc3Cl)c(C#N)sc2c1 [Cpd 19, 3-(2,4-dichloro-phenylsulfanyl)-6-methanesulfonyl-benzo[b]thiophene-2-carbonitrile] was run?
A: > 120 µM

Q: And the IC50 (COX II)?
A: < 1.5 µM

Q: How did the IC50 (COX I) turn out when CS(=O)(=O)c1ccc2c(Sc3ccc(F)cc3)c(C#N)sc2c1 [Cpd 26, 3-(4-fluoro-phenylsulfanyl)-6-methanesulfonyl-benzo[b]thiophene-2-carbonitrile] was run?
A: > 120 µM

Q: And the IC50 (COX II)?
A: < 1.5 µM

Q: What does the source list for CS(=O)(=O)c1ccc2c(Sc3ccccc3F)c(C#N)sc2c1 [Cpd 30, 3-(2-fluoro-phenylsulfanyl)-6-methanesulfonyl-benzo[b]thiophene-2-carbonitrile]?
A: IC50 (COX I): > 120 µM; IC50 (COX II): < 1.2 µM
